For one data set, the system named is EGFR. As to the kind of experiment: Western blot of EGFR expression in J82 cells. The class given is cell-based, human. Conditions: J82, 0.16 µmol/L, versus control. How it is done: (§1) T24 and J82 cell lines were lysed in protein lysis buffer, which included phosphatase inhibitors and a cocktail of protease inhibitors. A BCA kit (SparkJade, China) was used to determine the total protein concentration. After protein denaturation, SDS-PAGE electrophoresis was performed and the protein transferred from the gel to a PVDF membrane (Millipore, USA). Then primary antibodies against cleaved caspases-3, cleaved PARP, AKT, phosphorylated AKT, ERK1/2, phosphorylated ERK1/2, EGFR, mTOR, phosphorylated mTOR and Tubulin (CST, USA) were diluted at 1:1000 at 4 °C overnight. The membranes were then washed and incubated with secondary antibodies dissolved in 5% nonfat milk. A chemiluminescence imaging system was used to detect the signals (Tanon, China).
EGFR is overexpressed in malignant urothelial cells, which is associated with the deterioration, invasiveness and metastasis of tumors. It is a potential therapeutic target for bladder carcinoma. Therefore, we examined the expression of EGFR and its downstream proteins after treating bladder cancer cells with CHNQD-01281 (Supplementary Fig. S11). […] Taken together, CHNQD-01281 inhibited the proliferation of bladder cancer cells and induced apoptosis through EGFR/PI3K/AKT and EGFR/ERK pathways to exert antitumor effects.

In a further data set the test system is cleaved PARP. As to the kind of experiment: Western blot of apoptosis-related protein. In kind it is cell-based, human. The note with it: Fig. S11b. How it is done: as §1
(§2) Furthermore, treatment with CHNQD-01281 induced a dose-dependent increase in the total apoptosis of T24 and J82 cell lines. […] Meanwhile, the expression of apoptosis-related proteins cleaved PARP and cleaved caspase-3 were detected by Western blot. […] Therefore, CHNQD-01281 can induce DNA damage to arrest the cell cycle at the G0/G1 phase, affect the expression of DNA damage repair enzyme PARP, and finally induce apoptosis of bladder cancer cell lines.

A further data set concerns cleaved caspase-3. Briefly: Western blot of apoptosis-related protein. In kind it is cell-based, human. Conditions: Fig. S11b. How it is done: as §1, §2
For data set [1], the system named is J82 cell line. Briefly: Cell apoptosis analysis (Annexin V). In kind it is cell-based, human. Conditions: J82, 0.32 µmol/L (control 4.15%). How it is done: (§3) T24 and J82 cell lines were seeded in 6-well plates (3 × 10^5 cells/well) and treated with different concentrations of CHNQD-01281 or DMSO. Muse™ Annexin V and Dead Cell assay kit (Muse TM Cell Analyzer, Millipore (catalog no. MCH100105)) was used to determine the cell apoptosis by Muse cell analyzer (Millipore, Billerica, MA, USA).
as §2

Data set [2] relates to T24 cell line. Briefly: Cell apoptosis analysis (Annexin V). In kind it is cell-based, human. Conditions: T24, 0.32 µmol/L (control 3.45%). How it is done: as §3, §2
Data set [3] is described as follows: Single-dose safety profile, HE staining of main organs. In kind it is in vivo, C57BL/6 mice. The note with it: single dose 100 mg/kg, i.p. How it is done:
(§4) To further investigate the safety profile of CHNQD-01281 in vivo, the HE staining of the heart, liver, spleen, lung, kidney and duodenum of C57 mice were analyzed after the single dose of CHNQD-01281 (100 mg/kg, i.p.). […] The distribution of CHNQD-01281 in tumor and main organs of C57BL/6 mice was then analyzed.
(§5) Fig. S14. Safety profile and tissue distribution of CHNQD-01281 in vivo. A Representative H&E staining images (scale bar: 50 μm) of main organs from vehicle and CHNQD-01281 (100 mg/kg, ip.) treated C57BL/6 mice (n = 3). B Bodyweight evaluation of mouse after treatment with vehicle and CHNQD-01281. C Tissue distribution of CHNQD-01281 in C57BL/6 mice (n = 3).

Data set [4] in a line: Tissue distribution in tumor and main organs. The class given is in vivo, C57BL/6 mice. Conditions: tumor, heart, duodenum and spleen. How it is done:
as §4, §5

Data set [5] relates to J82 cell line. As to the kind of experiment: Cell cycle analysis (Muse Cell Analyzer). The class given is cell-based, human. How it is done: (§6) T24 and J82 cell lines were seeded in 6-well plates (3 × 10^5 cells/well) and treated with different concentrations of CHNQD-01281 or DMSO. Cells were then harvested, washed with ice-cold PBS, and fixed in 70% cold ethanol overnight at − 20 °C. Fixed cells were then collected, washed, and stained with 200 μL of Muse™ cell cycle reagent for 30 min in the dark at room temperature. The cell cycle distribution was immediately analyzed by Muse Cell Analyzer (Millipore, Billerica, MA, USA).
(§7) The G1/S transition is a key checkpoint in the cell cycle that regulates DNA replication. As the cell cycle progresses, G1 phase arrest leads to apoptosis or repair mechanisms.

In data set [6] the test system is T24 cell line. As to the kind of experiment: Cell cycle analysis (Muse Cell Analyzer). The class given is cell-based, human. How it is done: as §6, §7
For data set [7], the system named is J82 cell line. As to the kind of experiment: Wound healing assay (migration). The class given is cell-based, human. The note with it: J82, 0.16 µmol/L, 24 h. How it is done:
(§8) Fig. 3 Effects of CHNQD-01281 on colony formation and migration of T24 and J82 cell lines. A T24 and J82 cell lines were cultured for 12 days with varying concentrations of CHNQD-01281 (0−0.16 μmol/L) and colonies were fixed and dyed with 0.1% crystal violet. B The relative colony numbers are shown. C Scratches of T24 and J82 cell colonies were generated with pipette tips (200 μL). After 24 h of incubation with 0−0.16 μmol/L CHNQD-01281, representative images were captured. D Histograms display the healed rate. Data are represented as the mean ± SD of three independent experiments. **P < 0.01, ***P < 0.001 and ****P < 0.0001 versus the 0 μmol/L group
(§9) Metastasis and invasiveness are important indications for progression of bladder cancer. […] At the concentration of 0.16 µmol/L, the healed rate of T24 and J82 was 21% and 29%, respectively.

The subject of data set [8] is T24 cell line. As to the kind of experiment: Wound healing assay (migration). The class given is cell-based, human. Conditions: T24, 0.16 µmol/L, 24 h. How it is done:
as §8, §9

`C[C@H]1CCC/C=C/[C@@H]2C[C@H](O)C[C@H]2[C@H](OC(=O)/C=C/c2cccnc2)/C=C/C(=O)O1` [CHNQD-01281, Brefeldin A 4-O-3-(pyridin-3-yl) acrylate]: the “maximum down-regulation of EGFR expression” value in the data set with EGFR is on record as 87.61%. In addition, the “maximum expression level of cleaved PARP” value in the data set with cleaved PARP is listed as 0.95 fold of the control group. Besides, the “maximum expression level of cleaved caspase-3” value with cleaved caspase-3 was 1.23 fold of the control group. Besides, the total apoptotic cells in the data set with J82 cell line [1] turned out to be 27.9%; with T24 cell line [2], 27.8%. For the same compound, the “HE staining of heart, liver, spleen, lung, kidney and duodenum” value in [3] was “no obvious abnormalities in cell and tissue morphology”. Further, the “time of rapid concentration elimination” value in [4] is not above 1 h. Further, the “proportion of cells in S phase” value in the data set on J82 cell line [5] (J82, 0.04 µmol/L (control 27.5%)) is given as 26.0%; in the data set on J82 cell line [5] (J82, 0.08 µmol/L (control 27.5%)), 22.1%; in the data set on J82 cell line [5] (J82, 0.16 µmol/L (control 27.5%)) it was 18.2%; with T24 cell line [6] (T24, 0.04 µmol/L (control 20.5%)) it was 18.9%; with T24 cell line [6] (T24, 0.08 µmol/L (control 20.5%)), 13.5%; in the data set on T24 cell line [6] (T24, 0.16 µmol/L (control 20.5%)) it was 11.4%. Besides, the G0/G1 cells came out at 60.3% with J82 cell line [5] (J82, 0.04 µmol/L (control 53.1%)); 66.3% in the data set on J82 cell line [5] (J82, 0.08 µmol/L (control 53.1%)); 73.6% in the data set on J82 cell line [5] (J82, 0.16 µmol/L (control 53.1%)); 65.0% in the data set on T24 cell line [6] (T24, 0.04 µmol/L (control 61.4%)); 75.2% with T24 cell line [6] (T24, 0.08 µmol/L (control 61.4%)); 80.6% in the data set with T24 cell line [6] (T24, 0.16 µmol/L (control 61.4%)). The healed rate in the data set on J82 cell line [7] was found to be 29%; in the data set with T24 cell line [8], 21%.
